Data from patent US20190239509A1, “METHOD OF CONTROLLING PLANTS” (SYNGENTA PARTICIPATIONS AG, priority 2016, published 2019).

Columns and labels:
Type in all cases: in vivo
[1] = system: HORVW (Hordeum vulgare—barley); assay: B1 glasshouse post-emergence herbicidal activity, barley; conditions: after 14 days, 100=total damage, 0=no damage
Procedure: (§1) Seeds of a variety of test species HORVW (Hordeum vulgare—barley), ABUTH (Abutilon theophrasti), AMARE (Amaranthus retroflexus) and ECHCG (Echinochloa crus-galli) were sown in standard soil in pots. After cultivation for 10 days cultivation under controlled conditions in a glasshouse (at 24/16° C., day/night; 14 hours light; 65% humidity), the plants were sprayed with an aqueous spray solution derived from the formulation of the technical active ingredient in 0.6 ml acetone and 45 ml formulation solution containing 10.6% Emulsogen EL (Registry number 61791-12-6), 42.2% N-methyl pyrrolidone, 42.2% dipropylene glycol monomethyl ether (CAS RN 34590-94-8) and 0.2% X-77 (CAS RN 11097-66-8).
(§2) The test plants were then grown in a glasshouse under controlled conditions in a glasshouse (at 24/16° C., day/night; 14 hours light; 65% humidity) and watered twice daily. After 14 days, the test was evaluated (100=total damage to plant; 0=no damage to plant).

[2] = system: ECHCG (Echinochloa crus-galli); assay: B1 glasshouse post-emergence herbicidal activity, ECHCG; conditions: after 14 days, 100=total damage, 0=no damage
Procedure: as §1, §2

[3] = system: ABUTH (Abutilon theophrasti); assay: B1 glasshouse post-emergence herbicidal activity, ABUTH; conditions: after 14 days, 100=total damage, 0=no damage
Procedure: as §1, §2

[4] = system: AMARE (Amaranthus retroflexus); assay: B1 glasshouse post-emergence herbicidal activity, AMARE; conditions: after 14 days, 100=total damage, 0=no damage
Procedure: as §1, §2

[5] = system: Amaranthus viridis (AMAVI); assay: B2 drilled field trial Brazil, post-emergence, AMAVI; conditions: 100 g ai/ha, 100=total damage, 0=no damage
Procedure: (§3) Seeds of a variety of test species were used in drilled field trials to look at the control of important weed species present in corn crops as well as the effect on soybean (a volunteer crop in corn). Trials were carried out in Brazil in the summer season.
(§4) Plot size was 10-12 m^2, and two replicates were carried out per treatment. Plants were treated post-emergence at the 4 leaf stage. Fungicides and insecticides were used as necessary for plant health. The test was evaluated at 7 and 30 days after application (Amaranthus viridis (AMAVI), Bidens pilosa (BIDPI), Euphorbia heterophylla (EPPHL)) and 9 and 37 days after application (Brachiaria plantaginea (BRAPL) and soybean (Glycine max GLXMA) with 100=total damage to plant and 0=no damage to plant.
(§5) Expected results were calculated using the Colby Formula.

[6] = system: Bidens pilosa (BIDPI); assay: B2 drilled field trial Brazil, post-emergence, BIDPI; conditions: 100 g ai/ha, 100=total damage, 0=no damage
Procedure: as §3, §4, §5

[7] = system: Euphorbia heterophylla (EPPHL); assay: B2 drilled field trial Brazil, post-emergence, EPPHL; conditions: 100 g ai/ha, 100=total damage, 0=no damage
Procedure: as §3, §4, §5

[8] = system: Brachiaria plantaginea (BRAPL); assay: B2 drilled field trial Brazil, post-emergence, BRAPL; conditions: 100 g ai/ha, 100=total damage, 0=no damage
Procedure: as §3, §4, §5

[9] = system: soybean (Glycine max GLXMA); assay: B2 drilled field trial Brazil, post-emergence, soybean; conditions: 100 g ai/ha, 100=total damage, 0=no damage
Procedure: as §3, §4, §5

Structure (SMILES) | HORVW ([1]; Rate 125 g/ha) | HORVW ([1]; Rate 250 g/ha) | ECHCG ([2]; Rate 125 g/ha) | ECHCG ([2]; Rate 250 g/ha) | ABUTH ([3]; Rate 125 g/ha) | ABUTH ([3]; Rate 250 g/ha) | AMARE ([4]; Rate 125 g/ha) | AMARE ([4]; Rate 250 g/ha) | AMAVI 7DAA Observed ([5]; 7 days after application) | AMAVI 30 DAA Observed ([5]; 30 days after application) | BIDPI 7DAA Observed ([6]; 7 days after application) | BIDPI 30 DAA Observed ([6]; 30 days after application) | EPPHL 7DAA Observed ([7]; 7 days after application) | EPPHL 30 DAA Observed ([7]; 30 days after application) | BRAPL 9DAA Observed ([8]; 9 days after application) | BRAPL 37 DAA Observed ([8]; 37 days after application) | GLXMA 9DAA Observed ([9]; 9 days after application) | GLXMA 37 DAA Observed ([9]; 37 days after application)
COc1ccc(-n2nc(C)cc(C(=O)C3C(=O)C4CCC(C4)C3=O)c2=O)cc1OC (stereo not drawn) [Compound 2.1, 3-[2-(3,4-dimethoxyphenyl)-6-methyl-3-oxo-pyridazine-4-carbonyl]bicyclo[3.2.1]octane-2,4-dione] | 0 | 0 | 100 | 100 | 100 | 100 | 100 | 100 | – | – | – | – | – | – | – | – | – | –
COc1ccc(-n2nc(C)cc(C(=O)C3C(=O)CC(C)CC3=O)c2=O)cc1OC (stereo not drawn) [Compound 2.2] | 0 | 0 | 100 | 100 | 100 | 100 | 100 | 100 | – | – | – | – | – | – | – | – | – | –
COc1ccc(-n2nc(C)cc(C(=O)C3C(=O)CCCC3=O)c2=O)cc1OC [Compound 2.3, 2-[2-(3,4-Dimethoxyphenyl)-6-methyl-3-oxo-pyridazine-4-carbonyl]cyclohexane-1,3-dione] | 0 | 0 | 100 | 100 | 100 | 100 | 100 | 100 | 65 | 70 | 45 | 43 | 58 | 42 | 78 | 37 | 55 | 100
COc1ccc(-n2nc(C)cc(C(=O)C3C(=O)CC(C)(C)CC3=O)c2=O)cc1OC [Compound 2.4] | 0 | 10 | 100 | 100 | 100 | 100 | 100 | 100 | – | – | – | – | – | – | – | – | – | –
COc1ccc(-n2nc(C)cc(C(=O)C3C(=O)C(C)(C)C(=O)C(C)(C)C3=O)c2=O)cc1OC [Compound 2.5] | 0 | 0 | 90 | 90 | 100 | 100 | 100 | 100 | – | – | – | – | – | – | – | – | – | –
COc1ccc(-n2nc(C3CC3)cc(C(=O)C3C(=O)C4CCC(C4)C3=O)c2=O)cc1OC (stereo not drawn) [Compound 2.9] | 0 | 10 | 100 | 100 | 100 | 100 | 90 | 100 | – | – | – | – | – | – | – | – | – | –
COc1ccc(-n2nc(C3CC3)cc(C(=O)C3C(=O)C(C)(C)C(=O)C(C)(C)C3=O)c2=O)cc1OC [Compound 2.11, 6-[6-cyclopropyl-2-(3,4-dimethoxyphenyl)-3-oxo-pyridazine-4-carbonyl]-2,2,4,4-tetramethyl-cyclohexane-1,3,5-trione] | 0 | 0 | 100 | 100 | 100 | 100 | 100 | 100 | – | – | – | – | – | – | – | – | – | –
